Results on 3 molecules are retold here after patent publication US20090197897A1, “Novel Oxadiazole Derivatives and Their Use as Positive Allosteric Modulators of Metabotropic Glutamate Receptors” (Addex Pharma SA, priority 2005, published 2009).

For one assay, the target named is T1, rat mGluR5 (Rattus norvegicus, UniProt P31424).
T1 construct: expressed in transfected cells
The experiment in a line: mGluR5 assay on HEK-expressing rat mGluR5 (fluorescent cell based Ca2+ mobilization assay). The conditions noted are these: for EC50: HEK-293 cells stably expressing rat mGluR5, no co-addition of glutamate, mean of at least three independent experiments in duplicate, read-out: Ca++ Flux (mean EC50). The procedure, abridged: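 HEK-293 cells stably expressing rat mGluR5, Fluo-4 loaded 60 min, in HEPES buffer pH 7.4 with sulfinpyrazone; compound (0.01 to 60 μM, 0.3% DMSO) added alone, no glutamate co-addition, and Ca2+ fluorescence followed 3 min by FLIPR. Duplicate points; EC50 from four-parameter logistic fit, mean of at least three experiments.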

The target of assay [1] is T2, mGluR5 (Rattus norvegicus, UniProt P31424).
T2 construct: positive allosteric modulators of mGluR5 receptors in native preparations; endogenous in cells; host or cells: primary cortical astrocytes from Sprague-Dawley rat embryos (day 16 to 19)
Put plainly: mGluR5 binding assay ([3H]-MPEP, rat brain membranes). The conditions noted are these: 3 nM [3H]-MPEP, 1 h at 4° C. From the text: Activity of compounds of the invention was examined following a radioligand binding technique using whole rat brain and tritiated 2-methyl-6-(phenylethynyl)-pyridine ([^3H]-MPEP) as a ligand following similar methods than those described in Gasparini et al. (2002) Bioorg. Med. Chem. Lett. 12:407-409 and in Anderson et al. (2002) J. Pharmacol. Exp. Ther. 303 (3) 1044-1051.
Cortices were dissected out from brains of 200-300 g Sprague-Dawley rats (Charles River Laboratories, L'Arbresle, France). Tissues were homogenized in 10 volumes (vol/wt) of ice-cold 50 mM Hepes-NaOH (pH 7.4) using a Polytron disrupter (Kinematica AG, Luzern, Switzerland) and centrifuged for 30 min at 40,000 g. (4° C.). […] Protein concentration was determined by the Bradford method (Bio-Rad protein assay, Reinach, Switzerland) with bovine serum albumin as standard.
Membranes were thawed and resuspended in binding buffer containing 20 mM HEPES-NaOH, 3 mM MgCl2, 3 mM CaCl2, 100 mM NaCl, pH 7.4. […] Radioactivity was determined by liquid scintillation spectrometry using a 96-well plate reader (TopCount, Perkin-Elmer, Downers Grove, USA).
The inhibition curves were generated using the Prism GraphPad program (Graph Pad Software Inc, San Diego, USA). […] The mean of IC50 obtained from at least three independent experiments of selected molecules performed in duplicate were calculated.

Assay [2] concerns amphetamine-induced locomotor activation in mice. The experiment in a line: Amphetamine model of schizophrenia (amphetamine-induced locomotor activity). The following applies: 30 & 50 mg/kg ip, 30 min before amphetamine 3.0 mg/kg s.c., 60 min. The assay is classed as in vivo. From the text: Amphetamine-induced increases in locomotor ambulation are well known and are widely used as a model of the positive symptoms of schizophrenia. This model is based on evidence that amphetamine increases motor behaviors and can induce a psychotic state in humans (Yui et al. (2000) Ann NY Acad Sci 914:1-12). Further, it is well known that amphetamine-induced increases in locomotor activity are blocked by antipsychotics drugs that are effective in the treatment of schizophrenia (Arnt (1995) Eur J Pharmacol 283:55-62). […]
Assessment of locomotor (ambulatory) activity: The effects of compounds on amphetamine-induced locomotor activation in mice were tested. […] Locomotor activity (ambulations) was monitored by a videotracking system (VideoTrack, Viewpoint, Champagne au Mont d'Or, France) that recorded the ambulatory movements of mice. […] Mice were placed into the locomotor boxes immediately after the amphetamine injection and their locomotor activity, defined as the distance traveled in centimeters (cm), was measured for 60 minutes. […]
Statistical analyses: Statistical analyses were performed using GraphPad PRISM statistical software (GraphPad, San Diego, Calif., USA). Data were analyzed using one-way analysis of variance (ANOVA) followed by post-hoc Bonferroni-corrected multiple comparisons, where appropriate. […]

Assay [3] has as its target T2, mGluR5. The conditions noted are these: Liu et al 2006, Zhang et al 2005; cited from earlier work.

T1 sequence (P31424 21-1171 isoform P31424-2 limits assumed): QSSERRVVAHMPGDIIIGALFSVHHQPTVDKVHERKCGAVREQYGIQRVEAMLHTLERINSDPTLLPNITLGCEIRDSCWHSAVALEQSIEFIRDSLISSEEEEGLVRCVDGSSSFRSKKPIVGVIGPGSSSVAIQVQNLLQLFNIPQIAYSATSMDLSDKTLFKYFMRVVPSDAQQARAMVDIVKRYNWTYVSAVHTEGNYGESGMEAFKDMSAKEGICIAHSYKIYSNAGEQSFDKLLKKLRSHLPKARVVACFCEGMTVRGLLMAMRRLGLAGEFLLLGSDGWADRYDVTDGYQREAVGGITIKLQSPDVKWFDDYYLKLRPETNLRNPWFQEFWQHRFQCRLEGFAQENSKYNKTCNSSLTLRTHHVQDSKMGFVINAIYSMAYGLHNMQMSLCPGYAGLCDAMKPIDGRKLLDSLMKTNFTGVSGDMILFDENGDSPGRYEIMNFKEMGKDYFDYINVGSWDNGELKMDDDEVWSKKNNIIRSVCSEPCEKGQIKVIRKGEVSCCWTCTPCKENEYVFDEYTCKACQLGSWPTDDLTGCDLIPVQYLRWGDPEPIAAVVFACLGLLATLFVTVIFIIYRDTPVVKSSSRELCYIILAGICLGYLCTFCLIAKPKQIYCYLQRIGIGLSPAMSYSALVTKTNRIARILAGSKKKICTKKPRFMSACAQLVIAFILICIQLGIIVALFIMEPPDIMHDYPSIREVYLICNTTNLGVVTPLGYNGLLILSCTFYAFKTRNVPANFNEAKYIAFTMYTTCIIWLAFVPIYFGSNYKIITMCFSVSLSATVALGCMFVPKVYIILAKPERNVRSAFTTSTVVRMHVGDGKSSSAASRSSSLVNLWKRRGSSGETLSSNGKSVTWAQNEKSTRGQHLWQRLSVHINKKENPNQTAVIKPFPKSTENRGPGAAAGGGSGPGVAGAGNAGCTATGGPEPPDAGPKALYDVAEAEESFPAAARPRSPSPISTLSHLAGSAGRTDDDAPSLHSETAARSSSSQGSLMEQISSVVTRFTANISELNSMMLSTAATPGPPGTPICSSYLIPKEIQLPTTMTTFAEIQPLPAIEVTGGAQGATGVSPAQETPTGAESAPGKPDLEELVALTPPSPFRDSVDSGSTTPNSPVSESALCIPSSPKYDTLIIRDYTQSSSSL
T2 sequence (P31424 21-1203): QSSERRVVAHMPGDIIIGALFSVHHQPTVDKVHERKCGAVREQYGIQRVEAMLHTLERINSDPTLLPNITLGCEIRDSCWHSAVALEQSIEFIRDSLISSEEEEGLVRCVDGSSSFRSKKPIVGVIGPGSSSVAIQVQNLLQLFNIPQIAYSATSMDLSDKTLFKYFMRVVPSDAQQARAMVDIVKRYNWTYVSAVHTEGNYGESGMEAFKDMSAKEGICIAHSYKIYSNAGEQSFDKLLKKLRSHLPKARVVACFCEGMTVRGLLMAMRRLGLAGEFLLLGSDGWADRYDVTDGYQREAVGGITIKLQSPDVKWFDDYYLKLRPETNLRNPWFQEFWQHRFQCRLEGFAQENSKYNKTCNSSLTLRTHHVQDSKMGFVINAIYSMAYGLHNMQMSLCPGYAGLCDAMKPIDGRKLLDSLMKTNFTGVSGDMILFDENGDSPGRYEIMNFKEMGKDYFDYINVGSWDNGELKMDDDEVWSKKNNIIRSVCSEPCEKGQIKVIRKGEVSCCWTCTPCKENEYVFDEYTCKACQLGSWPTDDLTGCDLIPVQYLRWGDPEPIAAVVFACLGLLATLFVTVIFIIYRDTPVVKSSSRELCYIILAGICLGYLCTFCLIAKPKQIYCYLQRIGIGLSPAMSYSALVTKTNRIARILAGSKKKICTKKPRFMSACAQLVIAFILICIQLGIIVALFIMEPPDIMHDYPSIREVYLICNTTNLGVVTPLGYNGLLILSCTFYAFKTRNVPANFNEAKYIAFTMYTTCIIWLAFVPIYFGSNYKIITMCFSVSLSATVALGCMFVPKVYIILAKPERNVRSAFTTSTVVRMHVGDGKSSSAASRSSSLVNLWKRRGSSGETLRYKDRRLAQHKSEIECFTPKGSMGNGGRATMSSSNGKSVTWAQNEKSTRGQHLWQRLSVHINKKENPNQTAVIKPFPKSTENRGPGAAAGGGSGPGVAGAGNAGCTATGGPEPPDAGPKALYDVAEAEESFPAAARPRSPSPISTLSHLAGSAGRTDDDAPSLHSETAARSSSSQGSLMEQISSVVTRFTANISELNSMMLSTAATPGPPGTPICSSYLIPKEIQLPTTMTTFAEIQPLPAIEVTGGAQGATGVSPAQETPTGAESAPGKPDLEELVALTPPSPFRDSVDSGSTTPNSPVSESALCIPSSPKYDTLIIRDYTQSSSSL

As a reminder, the EC50 is the concentration giving half of the maximal effect. As a reminder, the IC50 is the concentration that inhibits the measured activity by half. Lower therefore signals greater potency. In the case of `O=C(c1ccc(F)nc1)N1CCC[C@H](c2nc(-c3ccc(F)cc3)no2)C1` [Example 29, (S)-{3-[3-(4-Fluoro-phenyl)-[1,2,4]oxadiazol-5-yl]-piperidin-1-yl}-(6-fluoro-pyridin-3-yl)-methanone], the EC50 on rat mGluR5 was less than 1000 nM. The IC50 at mGluR5 [1] is less than 30000 nM.
With `Cc1oncc1C(=O)N1CCC[C@H](c2nc(-c3ccc(F)cc3)no2)C1` [Example 5, (S)-{3-[3-(4-Fluoro-phenyl)-[1,2,4]oxadiazol-5-yl]-piperidin-1-yl}-(5-methyl-isoxazol-4-yl)-methanone], at rat mGluR5, the EC50 was less than 1000 nM. Also, the “increase in locomotor activity induced by amphetamine” value in assay [2] (listed as compound # 5) was “significantly attenuated”; in assay [2] (listed as example 5) it was “significantly attenuate”.
Consider `N#Cc1cccc(C(=O)Nc2cc(-c3ccccc3)nn2-c2ccccc2)c1` [CDPPB, reference compound], for which, at rat mGluR5 (without co-addition of glutamate or mGluR5 agonist), the “activation of rat mGluR5 receptors in HEK-rat mGluR5 cell line” value is “activating”. The “activity in rat cortical astrocytes culture in the absence of added glutamate” value on mGluR5 [3] is “inactive”.
